US8273762B2, “Hexahydro-pyrrolo-isoquinoline compounds” (Janssen Pharmaceutica NV, priority 2005, dated 2012)
pKi: −log10 of the molar value. Like-named read-outs stand apart in the source and are kept apart here.

What was measured:
[1] = target: T1, human H3 receptor (SK-N-MC cells) (Homo sapiens, UniProt Q9Y5N1); experiment: Cyclic AMP accumulation (β-galactosidase reporter, Schild analysis vs histamine); assay type: cell-based; conditions: read-out: H3 pA2 (converted)
T1 construct: expressed in transfected cells; host or cells: SK-N-MC sublines with CRE-beta-galactosidase reporter
T1 sequence (Q9Y5N1 whole entry): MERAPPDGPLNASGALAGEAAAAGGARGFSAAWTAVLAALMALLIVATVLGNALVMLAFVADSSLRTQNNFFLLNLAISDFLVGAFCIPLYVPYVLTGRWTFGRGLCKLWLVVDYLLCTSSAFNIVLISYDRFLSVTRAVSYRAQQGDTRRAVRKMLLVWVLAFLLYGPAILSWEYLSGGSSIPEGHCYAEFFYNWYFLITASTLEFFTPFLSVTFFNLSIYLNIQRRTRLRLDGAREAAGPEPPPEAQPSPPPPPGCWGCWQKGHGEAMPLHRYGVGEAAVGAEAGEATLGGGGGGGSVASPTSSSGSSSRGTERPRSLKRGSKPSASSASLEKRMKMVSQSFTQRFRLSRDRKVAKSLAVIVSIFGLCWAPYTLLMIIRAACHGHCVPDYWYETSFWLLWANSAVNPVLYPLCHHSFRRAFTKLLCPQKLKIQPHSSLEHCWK
Description: The reporter gene (β-galactosidase) is under the control of multiple cyclic AMP responsive elements. In 96-well plates, histamine was added directly to the cell media followed 5 min later by an addition of forskolin (5 μM final concentration). When appropriate, antagonists were added 10 min prior to agonist addition. After a 6-h incubation at 37° C., the media was aspirated and the cells washed with 200 μL of phosphate-buffered saline followed by a second aspiration. Cells were lysed with 25 μL 0.1× assay buffer (10 mM Na-phosphate, pH 8, 0.2 mM MgSO4, 0.01 mM MnCl2) and incubated at rt for 10 min. Cells were then incubated for 10 min with 100 μL of 1× assay buffer containing 0.5% Triton and 40 mM β-mercaptoethanol. Color was developed using 25 μL of 1 mg/mL substrate solution (chlorophenolred β-D galactopyranoside; Roche Molecular Biochemicals, Indianapolis, Ind.).

[2] = target: T2, human SERT (HEK293 membranes) (Homo sapiens, UniProt P31645); experiment: Human SERT binding (3H-citalopram displacement)
T2 construct: purchased Perkin-Elmer; host or cells: HEK293 membranes
T2 sequence (P31645 whole entry): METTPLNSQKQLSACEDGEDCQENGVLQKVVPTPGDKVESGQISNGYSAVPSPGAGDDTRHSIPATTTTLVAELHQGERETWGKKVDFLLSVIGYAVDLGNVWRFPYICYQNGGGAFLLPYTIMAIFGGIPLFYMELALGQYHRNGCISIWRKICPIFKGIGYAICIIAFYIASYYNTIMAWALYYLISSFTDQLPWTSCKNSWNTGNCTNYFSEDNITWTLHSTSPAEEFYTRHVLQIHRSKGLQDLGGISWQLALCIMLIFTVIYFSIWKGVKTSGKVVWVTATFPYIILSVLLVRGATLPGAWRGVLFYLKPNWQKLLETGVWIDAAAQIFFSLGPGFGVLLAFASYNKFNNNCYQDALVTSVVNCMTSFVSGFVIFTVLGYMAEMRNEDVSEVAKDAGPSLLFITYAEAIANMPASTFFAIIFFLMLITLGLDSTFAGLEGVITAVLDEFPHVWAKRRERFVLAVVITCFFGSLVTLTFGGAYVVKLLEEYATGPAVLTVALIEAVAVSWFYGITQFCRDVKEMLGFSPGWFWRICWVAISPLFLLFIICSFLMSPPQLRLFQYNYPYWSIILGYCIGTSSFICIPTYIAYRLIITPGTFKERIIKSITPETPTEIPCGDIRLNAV
Description: Nonspecific binding was determined in the presence of 10 μM fluoxetine for the SERT. The membranes were washed and the radioactivity was counted as above.

[3] = target: T3, Rat SERT (Rattus norvegicus, UniProt P31652); experiment: Rat brain SERT binding ([3H]-Citalopram displacement); conditions: rat brain membranes, 0.6 nM [3H]-Citalopram; read-out: Rat SERT Ki
T3 construct: A rat brain without cerebellum (Zivic Laboratories, Inc.—Pittsburgh, Pa.) was homogenized; tissue Zivic Laboratories, Inc; host or cells: rat brain without cerebellum, membranes
T3 sequence (P31652 whole entry): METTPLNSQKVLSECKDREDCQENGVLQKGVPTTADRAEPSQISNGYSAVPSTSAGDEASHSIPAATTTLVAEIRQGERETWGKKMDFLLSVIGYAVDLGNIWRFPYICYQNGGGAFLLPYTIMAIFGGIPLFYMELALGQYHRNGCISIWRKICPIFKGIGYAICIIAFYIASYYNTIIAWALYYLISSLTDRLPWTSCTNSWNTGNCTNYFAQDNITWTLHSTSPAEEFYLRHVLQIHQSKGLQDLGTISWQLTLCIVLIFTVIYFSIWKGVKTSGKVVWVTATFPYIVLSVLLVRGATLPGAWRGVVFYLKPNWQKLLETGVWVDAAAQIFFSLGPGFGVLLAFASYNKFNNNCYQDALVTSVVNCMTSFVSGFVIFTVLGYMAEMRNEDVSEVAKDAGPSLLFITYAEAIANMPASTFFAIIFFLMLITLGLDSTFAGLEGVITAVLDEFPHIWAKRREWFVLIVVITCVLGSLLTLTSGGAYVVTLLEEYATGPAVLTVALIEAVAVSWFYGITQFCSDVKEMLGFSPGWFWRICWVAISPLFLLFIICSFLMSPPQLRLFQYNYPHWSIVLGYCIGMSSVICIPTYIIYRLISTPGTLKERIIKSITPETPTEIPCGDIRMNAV

[4] = target: T4, cloned human H3 receptor, stably expressed in SK-N-MC cells (Homo sapiens, UniProt Q9Y5N1); experiment: H3 receptor binding (N-[3H]-α-methylhistamine displacement); conditions: SK-N-MC membranes, 0.8 nM N-[3H]-α-methylhistamine
T4 construct: expressed in transfected cells
T4 sequence (Q9Y5N1 whole entry): as the sequence (Q9Y5N1 whole entry) above

[5] = system: synaptic reuptake of 5-HT; experiment: 5-HTP potentiation test (head twitches); assay type: in vivo; conditions: mice, 5 min interval, carbidopa 10 mg/kg + 5-HTP 40 mg/kg, average ± s.e.m.
[6] = system: serotonin and dopamine levels in the cortex; experiment: Microdialysis of serotonin and dopamine in cortex; assay type: in vivo; conditions: cortex of freely moving rats, 1 mg/kg subcutaneous, FIG. 1
Description: Microdialysis is used to measure the concentration of small biological molecules in the extracellular fluid of the brain (Parent, M. et al. Methods 2001, 23, 11-20). A small probe, containing a fine microdialysis membrane at its tip, is introduced into the brain of an animal. A buffered solution is infused through the catheter. Small molecules, such as monoamine neurotransmitters, diffuse through the pores in the microdialysis membrane and are captured in the solution. The samples are then analyzed by analytical techniques to quantitate the amount of neurotransmitter in the brain extracellular fluid. This technique has been used extensively to measure the effects of SERT inhibitors on levels of extracellular serotonin.
Microdialysis was used to measure the levels of serotonin and dopamine in the brain of freely moving rats after subcutaneous injection of Example 8A. […] Results are represented as the average ±s.d. of n=2-4 rats.

[7] = system: H3 receptor; conditions: 60 min, average ± s.e.m.
Description: In this model, animals were introduced into a cage containing a fully-automated water drinking monitoring system. […] Results are shown as averages ±s.e.m. of n=8-13 animals.

SMILES | Kb [1] [nM] | pKi [2] | pKi [3] | pKi [4] | head twitch frequency ([5]; 3 mg/kg, Group 1 (1 h)) | head twitch frequency ([5]; 3 mg/kg, Group 2 (24 h)) | head twitch frequency ([5]; 10 mg/kg, Group 1 (1 h)) | head twitch frequency ([5]; 10 mg/kg, Group 2 (24 h)) | dopamine (DA) levels by microdialysis [6] | serotonin (5-HT) levels by microdialysis [6] | Water Consumed ([7]; Example 8A (1 mg/kg) i.p. + Imetit (1 mg/kg) after 24 h) [mL] | Water Consumed ([7]; Example 8A (3 mg/kg) i.p. + Imetit (1 mg/kg) after 24 h) [mL] | Water Consumed ([7]; Example 8A (10 mg/kg) i.p. + Imetit (1 mg/kg) after 24 h, p = 0.022 compared to imetit-treated animals)
Oc1ccc([C@H]2CN3CCC[C@H]3c3cc(OCCCN4CCCCC4)ccc32)cc1 (relative stereo) [Example 9A] | 0.316 | 7.24 | 8.05 | 8.70 |  |  |  |  |  |  |  |  | 
COc1ccc([C@H]2CN3CCC[C@H]3c3cc(OCCCN4CCCCC4)ccc32)cc1 (relative stereo) [Example 8A, Cis-6-(4-Methoxy-phenyl)-9-(3-piperidin-1-yl-propoxy)-1,2,3,5,6,10b-hexahydro-pyrrolo[2,1-a]isoquinoline] |  |  |  |  | 6.0 ± 1.2 (3) | 24.0 ± 2.1 (4) | 2.0 ± 0.6 (3) | 41.3 ± 5.2 (3) | slow, persistent increase | slow, persistent increase | 1.99 ± 0.68 | 1.65 ± 0.51 | *0.25 ± 0.15 mL
COc1cccc([C@H]2CN3CCC[C@H]3c3cc(OCCCN4CCCCC4)ccc32)c1 (relative stereo) [Example 10A, Cis-6-(3-Methoxy-phenyl)-9-(3-piperidin-1-yl-propoxy)-1,2,3,5,6,10b-hexahydro-pyrrolo[2,1-a]isoquinoline] | 0.158 | 8.70 | 8.30 | 8.70 |  |  |  |  |  |  |  |  | 
FC(F)(F)c1cccc([C@H]2CN3CCC[C@H]3c3cc(OCCCN4CCCCC4)ccc32)c1 (relative stereo) [Example 67] | 0.501 | 8.05 | 7.66 | 8.70 |  |  |  |  |  |  |  |  | 
c1ccc([C@H]2CN3CCC[C@H]3c3cc(OCCCN4CCCCC4)ccc32)cc1 (relative stereo) [Example 1A, Cis-6-Phenyl-9-(3-piperidin-1-yl-propoxy)-1,2,3,5,6,10b-hexahydro-pyrrolo[2,1a]isoquinoline] | 0.2 | 8.40 | 8.70 | 9.05 |  |  |  |  |  |  |  |  | 
N#Cc1ccc([C@@H]2CN3CCC[C@H]3c3cc(OCCCN4CCCCC4)ccc32)cc1 (relative stereo) [Example 41A, Cis-4-[9-(3-Piperidin-1-yl-propoxy)-1,2,3,5,6,10b-hexahydro-pyrrolo[2,1-a]isoquinolin-6-yl]-benzonitrile] | 0.794 | 7.23 | 7.60 | 9.00 |  |  |  |  |  |  |  |  | 
COc1ccc([C@@H]2CN3CCC[C@@H]3c3cc(OCCCN4CCOCC4)ccc32)cc1 [Example 92, (1R,6S)-6-(4-Methoxy-phenyl)-9-(3-morpholin-4-yl-propoxy)-1,2,3,5,6,10b-hexahydro-pyrrolo[2,1-a]isoquinoline] | 15.8 | 8.40 | 8.66 | 7.80 |  |  |  |  |  |  |  |  | 
FC(F)(F)Oc1ccc([C@H]2CN3CCC[C@H]3c3cc(OCCCN4CCCCC4)ccc32)cc1 (relative stereo) [Example 17] | 6.31 | 8.15 | 7.96 | 8.40 |  |  |  |  |  |  |  |  | 
